In patent US6369101B1, “Therapeutic method to treat herpes virus infection” (Regents of the University of Minnesota, priority 1999, dated 2002):
Converted amounts (≈) assume the structure as drawn.

Legend:
[1] = test system: HSV-1 strain E-377; assay: CPE inhibition assay, HSV-1 E377 in human foreskin fibroblast cells; format: cell-based, herpes simplex virus type 1; conditions: for EC50 HSV-1 E377: CPE inhibition in HFF cells; for Qualitative CPE at 2.0 ml dose HSV-1 E377: key: +++ = Complete cytopathic effect; ++ = Moderate cytopathic effect; + = Minimum cytopathic effect; − = No cytopathic effect
[2] = test system: HSV-2 (strain G); assay: Plaque reduction assay, HSV-2 strain G in HEp-2 cells; format: cell-based, herpes simplex virus type 2; conditions: HSV-2 virus control 47
Method: HEp-2 cells were grown to monolayer in 24 well tissue culture plates in DMEM containing 10% fetal calf serum at 37° C. for 24-36 hours in the presence of 5% CO2. The monolayer of HEp-2 cells was infected with 0.1 ml of HSV- 1 (strain F) or HSV-2 (strain G) containing 100 pfu. The viruses were allowed to adsorb for 1 hour at 37° C. in the presence of 5% CO2. All wells containing virus infected cells except virus control were overlaid with 0.9 ml of DMEM and 1 ml of test compound. The virus control and cell control received DMEM only. All microtiter plates were incubated at 37° C. in the presence of 5% CO2 and observed twice daily for 72 hours for viral CPE. At the end of the experiment, plates were stained with 0.1% crystal violet and the results were quantified by counting plaque forming units.

[3] = test system: HFF cells; assay: CC50 in HFF cells (Table 3); format: cell-based, human; conditions: HFF cells
Method: The cells were observed daily for any change in morphology. The rounding and lysis of cells were observed if the compound has cytotoxic effect. At the end of this time, the media-drug solution was removed and the cells washed. […] The cells-media mixture was then pipetted up and down several times to resuspend the cells and 0.2 ml of the cell suspension was added to 9.8 ml of trypan blue and cells were counted using hemocytometer. Each sample was counted three times with three replicate wells per sample.

[4] = test system: Primary Rabbit Kidney cells; assay: Cytotoxic effect in primary rabbit kidney cells; format: cell-based; conditions: for CC50: Primary Rabbit Kidney cell line
Method: (§1) Human laryngeal epithelial carcinoma cells (HEp-2, ATCC, Rockville, Md.) were used for testing of antiviral compounds by cytopathic effect (CPE) inhibition and plaque reduction assay. […] HEp-2, African green monkey kidney cells (Vero, ATCC), HFF and primary rabbit kidney cells were used to determine the cytotoxic effect of compounds of formula I. These cells were propagated in Dulbeco's modified Eagle's medium (DMEM) (Sigma, USA) supplemented with 10% inactivated fetal calf serum (FCS), 25 mM HEPES, 0.2% sodium bicarbonate and 1% penicillin/-streptomycin at 37° C. in the presence of 5% CO2.
(§2) HFF, Vero and HEp-2 cells were seeded in 24-well tissue culture plates at a concentration of […] in DMEM containing 10% FCS and incubated for 24 hours at 37° C. in the presence of 5% CO2. To the monolayer of these cells 0.5, 1.0, 1.5 and 2.0 ml of solution of antiviral compounds were added in the respective wells in duplicate and the cells were then incubated in a 5% CO2 incubator at 37° C. for 72 hours. The cells were observed daily for any change in morphology. […] At the end of this time, the media-drug solution was removed and the cells washed. One ml of 0.25% trypsin was added to each well and incubated until the cells start to come off of the plate. The cells-media mixture was then pipetted up and down several times to resuspend the cells and 0.2 ml of the cell suspension was added to 9.8 ml of trypan blue and cells were counted using hemocytometer. Each sample was counted three times with three replicate wells per sample.

[5] = test system: Vero cells; assay: Cytotoxic effect in Vero cell line; format: cell-based, African green monkey; conditions: Vero cell line
Method: as §1, §2

[6] = test system: HSV-1 (E377); assay: Cutaneous HSV-1 infection in rats, topical ointment; format: in vivo, rat; conditions: for effect on cutaneous HSV-1 infection (in words): topical ointment (2% betulin, 2% allobetulin, 5% Acyclovir) twice daily for 3 days from 18 hours after infection
[7] = HFF cells, solution conc. per compound (ng/ml) (Acyclovir 250)
[8] = conc. per compound (ng/ml) (Acyclovir 250)
[9] = Varicella-Zoster Virus section of Table 3

Molecule | EC50 HSV-1 E377 [1] | anti HSV-1 activity (in words) ([1]; HFF cells, HSV-1 (E377)) | Qualitative CPE at 2.0 ml dose HSV-1 E377 [1, 7] | Plaque Reduction Assay Average pfu/10^5 Cells HSV-2 Strain G [2, 8] | CC50 ([3]; Human Cytomegalovirus section of Table 3) | CC50 [3, 9] | CC50 [4] | cytotoxicity (in words) ([4]; primary rabbit kidney cells) | CC50 [5] | number of typical HSV lesions ([6]; HSV-1, by the 4th to 8th days of infection, 2% ointment twice daily for 3 days) | effect on cutaneous HSV-1 infection (in words) [6] | Qualitative CPE at 2.0 ml dose HSV-1 E377 ([1]; HFF cells, Conc. 12500 ng/ml) | Plaque Reduction Assay Average pfu/10^5 Cells HSV-2 Strain G ([2]; Conc. 12500 ng/ml)
C=C(C)[C@@H]1CC[C@]2(CO)CC[C@]3(C)[C@H](CC[C@@H]4[C@@]5(C)CC[C@H](O)C(C)(C)[C@@H]5CC[C@]43C)[C@@H]12 [Betulin, lup-20(29)-ene-3β, 28-diol, reference compound] | 0.25 µg/mL (≈ 0.565 µM) | significant anti-HSV-1 activity | +++ | 16 pfu/10^5 Cells | 0.0142 µg/mL (≈ 0.0321 µM) | 0.0141 µg/mL (≈ 0.0318 µM) | >0.25 µg/mL | No cytotoxicity | 0.125 µg/mL (≈ 0.282 µM) | decreased rapidly | diminished the signs of the infectious process | – | –
acycloguanosine [Acyclovir, reference compound] | 1.6 µg/mL | – | +++ | 42 pfu/10^5 Cells | – | >100 µg/mL | >0.25 µg/mL | – | 0.25 µg/mL | – | same healing response | + | 30 pfu/10^5 Cells
